IC50, melting point and CC50 data for 38 compounds are collected here from patent US10597390B2, “Indoles for use in influenza virus infection” (Janssen Sciences Ireland UC, priority 2014, dated 2020).

Counter-ions that a name gives are not always drawn.

Data set [1] relates to influenza virus A/Taiwan/1/86 (H1N1). Nature of the data set: organism not typed. Format: cell-based. To be noted: CPE in MDCK cells, three days post-virus exposure, ATPlite. On the technique in general: In ATP-based viability assays light output follows the ATP content of the culture.
The next data set can be described thus: in vitro. To be noted: dog, TOX MDCK CC50.

Turning to `Nc1cc(C(=O)N[C@@H]2CCC[C@H](Nc3nc(-c4c[nH]c5c(F)cc(Cl)cc45)ncc3F)C2)ncn1` [Compound 66], the melting point was found to be 152.4 °C. The compound further displayed an IC50 in data set [1] (MDCK, 72 h) of 3 nM. This compound showed a CC50 at 3 days in the data set “in vitro” of 5200 nM.
The like results for `O=C(N[C@@H]1CCC[C@H](Nc2nc(-c3c[nH]c4c(F)cc(Cl)cc34)ncc2F)C1)c1cnccn1` [Compound 33] were, in that order, 249.9 °C, 7 nM and 13800 nM.
The like results for `CC1(C(CC(N)=O)Nc2nc(-c3c[nH]c4c(F)cc(F)cc34)c(C#N)cc2F)CCCC1` (centres unmarked) [Compound 246] were, in that order, 270.1 °C, 610 nM and 6900 nM.
For `O=C(N[C@@H]1CCC[C@H](Nc2nc(-c3c[nH]c4c(F)cc(F)cc34)ncc2F)C1)c1ncccn1` [Compound 108], in that order: greater than 300 °C, 6 nM and greater than 24000 nM.
`Nc1n[nH]cc1C(=O)N[C@@H]1CCC[C@H](Nc2nc(-c3c[nH]c4c(F)cc(Cl)cc34)ncc2F)C1` [Compound 77] gave a melting point of 133 °C. Besides, half-maximal inhibition in data set [1] (MDCK, 72 h) (IC50) required 3 nM. In addition, it took 9900 nM to reach half-maximal cytotoxicity in the data set “in vitro” (CC50 at 3 days).
For `CS(=O)(=O)NCc1cc(F)c(N[C@@H]2CCC[C@H](NC(=O)N3CCCC3)C2)nc1-c1c[nH]c2c(F)cc(F)cc12` (racemic) [Compound 250, N-((cis)-3-((6-(5,7-difluoro-1H-indol-3-yl)-3-fluoro-5-(methylsulfonamidomethyl)pyridin-2-yl)amino)cyclohexyl)pyrrolidine-1-carboxamide], in that order: 252.1 °C, 780 nM and greater than 25000 nM.
Regarding `Cn1cnc(C(=O)N[C@@H]2CCC[C@H](Nc3nc(-c4c[nH]c5c(F)cc(Cl)cc45)ncc3F)C2)n1` [Compound 70], the melting point came to 291.9 °C. The 50% inhibitory concentration (IC50) in data set [1] (MDCK, 72 h) worked out at 4 nM. The midpoint of cytotoxicity in the data set “in vitro”, the CC50 at 3 days, lay at 9100 nM.
`O=C(N[C@@H]1CCC[C@H](Nc2nc(-c3c[nH]c4c(F)cc(F)cc34)ncc2F)C1)c1ncccc1O` [Compound 102] had a melting point of 176 °C. Inhibition in data set [1] (MDCK, 72 h) was half-maximal at 10 nM (IC50). Besides, in “in vitro”, it took 10100 nM to reach half-maximal cytotoxicity (CC50 at 3 days).
For `CN(C)c1ccnc(C(=O)N[C@@H]2CCC[C@H](Nc3nc(-c4c[nH]c5c(F)cc(F)cc45)ncc3F)C2)c1` [Compound 121], in that order: 282.8 °C, 6 nM and 15700 nM.
The like results for `Cc1cc(F)c2[nH]cc(-c3ncc(F)c(NC(CC(=O)O)C(C)(C)C)n3)c2c1` (racemic) [Compound 167] were, in that order, 182 °C, 30 nM and 3500 nM.
On to `CCn1ccnc1C(=O)N[C@@H]1CCC[C@H](Nc2nc(-c3c[nH]c4c(F)cc(Cl)cc34)ncc2F)C1` [Compound 72], for which the melting point is 156.4 °C. The same compound showed an IC50 in data set [1] (MDCK, 72 h) of 3 nM. Also, the CC50 at 3 days in the data set “in vitro” stood at 2800 nM.
The like results for `Cn1ccc(C(=O)N[C@@H]2CCC[C@@H](Nc3nc(-c4c[nH]c5c(F)cc(F)cc45)c(C#N)cc3F)C2)n1` (racemic) [Compound 205] were, in that order, 103 °C, 4 nM and greater than 25000 nM.
For `O=C(N[C@@H]1CCC[C@H](Nc2nc(-c3c[nH]c4c(F)cc(F)cc34)ncc2F)C1)c1nnn[nH]1`, the melting point came to 270.2 °C.
`Cc1cc(F)c2[nH]cc(-c3ncc(F)c(N[C@@H](CC(=O)O)C(C)(C)c4ccn(C)n4)n3)c2c1` [Compound 235]: the melting point is greater than 260 °C. The compound also returned an IC50 in data set [1] (MDCK, 72 h) of 190 nM. For the same compound, the CC50 at 3 days in “in vitro” is greater than 25000 nM.
The compound `Cc1cc(F)c2[nH]cc(-c3ncc(F)c(N[C@H]4C5CCC(CC5)[C@@H]4C(=O)O)n3)c2c1` (mixture of isomers) (as salt: TFA) [Compound 164] yielded a melting point greater than 250 °C.
In turn, `Cn1ccnc1C(=O)N[C@H]1CCC[C@@H](Nc2nc(-c3c[nH]c4c(F)cc(F)cc34)ncc2F)C1` [Compound 83] had a melting point of 166.6 °C. Also, the 50% inhibitory concentration (IC50) in data set [1] (MDCK, 72 h) is 2 nM. In “in vitro”, this compound displayed a CC50 at 3 days of 9600 nM.
`Nc1nccc(C(=O)N[C@@H]2CCC[C@H](Nc3nc(-c4c[nH]c5c(F)cc(F)cc45)ncc3F)C2)n1` [Compound 123] showed a melting point of 235 °C. Also, the midpoint of inhibition in data set [1] (MDCK, 72 h), the IC50, lay at 11 nM. Besides, in the data set “in vitro”, the CC50 at 3 days is greater than 25000 nM.
The like results for `Cc1cc(C(=O)N[C@@H]2CCC[C@H](Nc3nc(-c4c[nH]c5c(F)cc(Cl)cc45)ncc3F)C2)nn1C` [Compound 36] were, in that order, 178.2 °C, 10 nM and 5500 nM.
The like results for `O=C(N[C@@H]1CCC[C@H](Nc2nc(-c3c[nH]c4c(F)cc(F)cc34)ncc2F)C1)c1cnccn1` [Compound 107] were, in that order, 269 °C, 45 nM and greater than 25000 nM.
`Cc1cc(C(=O)N[C@@H]2CCC[C@H](Nc3nc(-c4c[nH]c5c(F)cc(F)cc45)ncc3F)C2)n(C)n1` [Compound 116] registered a melting point of 279 °C. The compound also displayed an IC50 in data set [1] (MDCK, 72 h) of 12 nM. Besides, in the data set “in vitro”, the CC50 at 3 days was 5800 nM.
The like results for `Cc1cc(F)c2[nH]cc(-c3nc(N[C@@H]4CCC[C@@H](NC(=O)c5cncs5)C4)c(F)cc3C#N)c2c1` (racemic) [Compound 201] were, in that order, greater than 250 °C, 10 nM and greater than 21800 nM.
For `O=C(N[C@@H]1CCC[C@H](Nc2nc(-c3c[nH]c4c(F)cc(F)cc34)ncc2F)C1)c1cncnc1` [Compound 138], in that order: greater than 300 °C, 39 nM and greater than 25000 nM.
The like results for `Cn1nncc1C(=O)N[C@@H]1CCC[C@H](Nc2nc(-c3c[nH]c4c(F)cc(Cl)cc34)ncc2F)C1` [Compound 49] were, in that order, 249.6 °C, 9 nM and greater than 25000 nM.
In turn, `Cc1nc(C(=O)N[C@@H]2CCC[C@H](Nc3nc(-c4c[nH]c5c(F)cc(Cl)cc45)ncc3F)C2)no1` [Compound 50] had a melting point of 276.7 °C. This compound also showed an IC50 in data set [1] (MDCK, 72 h) of 24 nM. For the same compound, the CC50 at 3 days in the data set “in vitro” is greater than 25000 nM.
Compound `Cn1nccc1C(=O)N[C@@H]1CCC[C@H](Nc2nc(-c3c[nH]c4c(F)cc(F)cc34)ncc2F)C1` [Compound 122] registered a melting point greater than 300 °C. In addition, the IC50 in data set [1] (MDCK, 72 h) was found to be 2 nM. In “in vitro”, this compound registered a cytotoxic concentration (CC50) at 3 days greater than 25000 nM.
The like results for `O=C(N[C@@H]1CCC[C@H](Nc2nc(-c3c[nH]c4c(F)cc(Cl)cc34)ncc2F)C1)c1cncnc1` [Compound 53] were, in that order, greater than 300 °C, 20 nM and greater than 25000 nM.
The like results for `CC1(C(CC(=O)O)Nc2nc(-c3c[nH]c4c(F)cc(F)cc34)c(C#N)cc2F)CCOCC1` (centres unmarked) [Compound 255, 3-((5-cyano-6-(5,7-difluoro-1H-indol-3-yl)-3-fluoropyridin-2-yl)amino)-3-(4-methyltetrahydro-2H-pyran-4-yl)propanoic Acid] were, in that order, 151.1 °C, 170 nM and 5300 nM.
`Nc1n[nH]c(C(=O)N[C@@H]2CCC[C@H](Nc3nc(-c4c[nH]c5c(F)cc(F)cc45)ncc3F)C2)n1` returned a melting point greater than 300 °C.
`Cc1c[nH]c(C(=O)N[C@@H]2CCC[C@H](Nc3nc(-c4c[nH]c5c(F)cc(Cl)cc45)ncc3F)C2)n1` [Compound 71] gave a melting point of 276.8 °C. The compound also yielded a concentration for half-maximal inhibition (IC50) in data set [1] (MDCK, 72 h) of 2 nM. Besides, it took 3400 nM to reach half-maximal cytotoxicity in “in vitro” (CC50 at 3 days).
The like results for `O=C(N[C@@H]1CCC[C@H](Nc2nc(-c3c[nH]c4c(F)cc(Cl)cc34)ncc2F)C1)c1cc[nH]n1` [Compound 51] were, in that order, 263.3 °C, 1 nM and 2800 nM.
Compound `O=C(N[C@@H]1CCC[C@H](Nc2nc(-c3c[nH]c4c(F)cc(Cl)cc34)ncc2F)C1)c1ncccc1O` [Compound 34] came in with a melting point of 242.2 °C. The half-maximal inhibitory concentration (IC50) in data set [1] (MDCK, 72 h) was 8 nM. The CC50 at 3 days in “in vitro” came to 8700 nM.
For `Cn1ncc(C(=O)N[C@@H]2CCC[C@H](Nc3nc(-c4c[nH]c5c(F)cc(F)cc45)ncc3F)C2)c1N` [Compound 156], the melting point is 248.7 °C. Also, the 50% inhibitory concentration (IC50) in data set [1] (MDCK, 72 h) came to 0.8 nM. Besides, the CC50 at 3 days in “in vitro” was 8500 nM.
For `Cc1ncn(C)c1C(=O)N[C@@H]1CCC[C@H](Nc2nc(-c3c[nH]c4c(F)cc(F)cc34)ncc2F)C1` [Compound 113], in that order: greater than 300 °C, 39 nM and greater than 25000 nM.
With `O=C(N[C@@H]1CCC[C@H](Nc2nc(-c3c[nH]c4c(F)cc(F)cc34)ncc2F)C1)c1csc(C(=O)O)n1` [Compound 155], the melting point stood at 260.8 °C. The concentration for half-maximal inhibition (IC50) in data set [1] (MDCK, 72 h) is 3 nM. For the same compound, the CC50 at 3 days in the data set “in vitro” was greater than 22800 nM.
For `Cn1nc(CO)cc1C(=O)N[C@@H]1CCC[C@H](Nc2nc(-c3c[nH]c4c(F)cc(F)cc34)ncc2F)C1` (relative stereo) [Compound 262, N-((1R*,3S*)-3-((2-(5,7-difluoro-1H-indol-3-yl)-5-fluoropyrimidin-4-yl)-amino)cyclohexyl)-3-(hydroxymethyl)-1-methyl-1H-pyrazole-5-carboxamide], the IC50 in data set [1] (MDCK, 72 h) came to 46 nM. For the same compound, the cytotoxic concentration (CC50) at 3 days in the data set “in vitro” was greater than 25000 nM.
Compound `Cn1cccc1C(=O)N[C@@H]1CCC[C@H](Nc2nc(-c3c[nH]c4c(F)cc(F)cc34)ncc2F)C1` (racemic) [Compound 94] gave an IC50 in data set [1] (MDCK, 72 h) of 5 nM. Moreover, in the data set “in vitro”, the CC50 at 3 days was 18400 nM.
The like results for `CC(C)(C)[C@H](CC(=O)O)Nc1nc(-c2c[nH]c3c(F)cc(Cl)cc23)ncc1F` [Compound 40] were, in that order, 5 nM and 400 nM.
Consider `Cc1cc(C(=O)N[C@@H]2CCC[C@H](Nc3nc(-c4c[nH]c5c(F)cc(F)cc45)c(C#N)cc3F)C2)nn1C` (racemic) [Compound 210], for which the IC50 in data set [1] is 12 nM. The compound further came in with a CC50 at 3 days in the data set “in vitro” greater than 25000 nM.

The IC50 is the concentration that inhibits the measured activity by half. Lower therefore signals higher potency. As a reminder, the melting point is the temperature of the solid-liquid transition. The term CC50 denotes the concentration at which the toxic effect on the cells reaches its halfway point.
